Experimental data taken from patent US20220185767A1, “NOVEL TERNARY MOLECULAR COMPLEX OF TAMIBAROTENE FOR CANCER STEM CELLS TREATMENT” (TRANSGENEX NANOBIOTECH, INC., priority 2019, published 2022).
pIC50: −log10 of the molar value. Read-outs that look alike come from different tables or passages of the source.

Columns and labels:
U-2 OS = assay: Monolayer Cell Culture Assay, IC50; assay type: cell-based; conditions: Sarcoma
Excerpt: (§1) All IC50 studies' methodology and materials are described in full details in international publication number WO 2019/160806 dated Aug. 22, 2019, but with substituting the binary molecular complex with the ternary molecular complex of the present invention.

PC-3 = assay: Monolayer Cell Culture Assay, IC50; assay type: cell-based; conditions: PC-3, Prostate
Excerpt: as §1

SK-Mel-5 = assay: Monolayer Cell Culture Assay, IC50; assay type: cell-based; conditions: SK-Mel-5, Skin
Excerpt: as §1

A549 = assay: Monolayer Cell Culture Assay, IC50; assay type: cell-based; conditions: A549, Lung
Excerpt: as §1

PANC-1 = assay: Monolayer Cell Culture Assay, IC50; assay type: cell-based; conditions: PANC-1, Pancreas
Excerpt: as §1

SK-ES-1 = assay: Monolayer Cell Culture Assay, IC50; assay type: cell-based; conditions: SK-ES-1, Sarcoma
Excerpt: as §1

[1] = cited from earlier work
MC38 = assay: Monolayer Cell Culture Assay, IC50; assay type: cell-based; conditions: Mus musculus, MC-38, MC38, Colon
Excerpt: as §1

CT26 = assay: Monolayer Cell Culture Assay, IC50; assay type: cell-based; conditions: Mus musculus, CT26, Colon
Excerpt: as §1

HCT116 = assay: Monolayer Cell Culture Assay, IC50; assay type: cell-based; conditions: Homo sapiens, HCT-116, HCT116, Colon
Excerpt: as §1

HT29 = assay: Monolayer Cell Culture Assay, IC50; assay type: cell-based; conditions: Homo sapiens, HT-29, HT29, Colon
Excerpt: as §1

lung cancer cells = assay: Sphere assay; assay type: cell-based
Excerpt: All sphere assay studies methodology and materials are described in full details in international publication number WO 2019/160806 dated Aug. 22, 2019, but with substituting the binary molecular complex with the ternary molecular complex of the present invention.

[2] = assay type: physicochemical
Experimental: 30.0 mg of tamibarotene, 11.4 mg of L-malic acid and 43.5 mg of telmisartan (1:1:1 molar ratio) were stirred as an open slurry in 1 mL of acetone in a glass vial. After 16-24 hours of stirring mixture was further dried at room temperature until, a completely dried mixture is obtained. The resulted material was stored in a screw cap vial and characterized by PXRD and IR. PXRD comparison of binary tamibarotene-L-malic acid complex (TN-513) with tamibarotene-L-malic acid-telmisartan (TN-513-T) also confirmed the successful synthesis of a ternary complex. Synthesis of ternary TN-513-T was scaled up to 150 mg of tamibarotene and stability was tested on accelerated conditions (75% humidity at 40° C.) for 1 and three months.

[3] = average of two tests, read-out: IC50 Test AVG Avg
[4] = Homo sapiens, average of two tests, read-out: IC50 Test AVG Avg
[5] = Homo sapiens, read-out: IC50 Test (II) Avg
[6] = Homo sapiens, read-out: IC50 Test(I) Avg

## CC1(C)CCC(C)(C)c2cc(NC(=O)c3ccc(C(=O)O)cc3)ccc21.CCOc1nc2cccc(C(=O)O)c2n1Cc1ccc(-c2ccccc2-c2nn[nH]n2)cc1 [TN513:CS, Tamibarotene:L-malic acid:candesartan]
U-2 OS; [3]
  pIC50: 4.37
U-2 OS; read-out: IC50 Test (II) Avg
  pIC50: 4.34
U-2 OS; read-out: IC50 Test(I) Avg
  pIC50: 4.40
PC-3; [3]
  pIC50: 3.97
PC-3; read-out: IC50 Test (II) Avg
  pIC50: 3.96
PC-3; read-out: IC50 Test(I) Avg
  pIC50: 3.99
SK-Mel-5; [3]
  pIC50: 4.34
SK-Mel-5; read-out: IC50 Test (II) Avg
  pIC50: 4.37
SK-Mel-5; read-out: IC50 Test(I) Avg
  pIC50: 4.31
A549; [3]
  pIC50: 4.28
A549; read-out: IC50 Test (II) Avg
  pIC50: 4.21
A549; read-out: IC50 Test(I) Avg
  pIC50: 4.37
PANC-1; [3]
  pIC50: 4.15
PANC-1; read-out: IC50 Test (II) Avg
  pIC50: 4.06
PANC-1; read-out: IC50 Test(I) Avg
  pIC50: 4.27
SK-ES-1; [3]
  pIC50: 4.50
SK-ES-1; read-out: IC50 Test (II) Avg
  pIC50: 4.47
SK-ES-1; read-out: IC50 Test(I) Avg
  pIC50: 4.54

## CC1(C)CCC(C)(C)c2cc(NC(=O)c3ccc(C(=O)O)cc3)ccc21 [TAM, 4-[(5,5,8,8-tetramethyl-5,6,7,8-tetrahydronaphthalen-2-yl)carbamoyl]benzoic acid, reference compound]
[1]; DMF, methanol, ethanol, DMSO, and other organic solvents
  solubility in organic solvents: soluble
[1]; acetonitrile, water, buffer solutions pH3~7 (CN 101200435 B)
  solubility in acetonitrile, water, and various other buffer solutions: insoluble
U-2 OS; Homo sapiens, U2OS, average of two tests, read-out: IC50 Test AVG Avg
  pIC50: < 4.00
U-2 OS; Homo sapiens, U2OS, read-out: IC50 Test (II) Avg
  pIC50: < 4.00
U-2 OS; Homo sapiens, U2OS, read-out: IC50 Test(I) Avg
  pIC50: < 4.00
MC38; [3]
  pIC50: 3.99
MC38; read-out: IC50 Test (I) Avg
  pIC50: 4.18
MC38; read-out: IC50 Test (II) Avg
  pIC50: 3.86
PC-3; [4]
  pIC50: < 4.00
PC-3; [5]
  pIC50: < 4.00
PC-3; [6]
  pIC50: < 4.00
SK-Mel-5; [4]
  pIC50: < 4.00
SK-Mel-5; [5]
  pIC50: < 4.00
SK-Mel-5; [6]
  pIC50: < 4.00
A549; [4]
  pIC50: 4.22
PANC-1; [4]
  pIC50: < 4.00
PANC-1; [5]
  pIC50: < 4.00
PANC-1; [6]
  pIC50: < 4.00
SK-ES-1; Homo sapiens, SK-ES1, average of two tests, read-out: IC50 Test AVG Avg
  pIC50: < 4.00
SK-ES-1; Homo sapiens, SK-ES1, read-out: IC50 Test (II) Avg
  pIC50: < 4.00
SK-ES-1; Homo sapiens, SK-ES1, read-out: IC50 Test(I) Avg
  pIC50: < 4.00
CT26; [3]
  pIC50: 4.06
CT26; read-out: IC50 Test (I) Avg
  pIC50: 4.21
CT26; read-out: IC50 Test (II) Avg
  pIC50: 4.02
HCT116; [3]
  pIC50: 4.22
HCT116; read-out: IC50 Test (I) Avg
  pIC50: 4.30
HCT116; read-out: IC50 Test (II) Avg
  pIC50: 4.15
HT29; [3]
  pIC50: 4.00
HT29; read-out: IC50 Test (I) Avg
  pIC50: 4.05
HT29; read-out: IC50 Test (II) Avg
  pIC50: 3.95

## CC1(C)CCC(C)(C)c2cc(NC(=O)c3ccc(C(=O)O)cc3)ccc21.CCCCc1nc(Cl)c(CO)n1Cc1ccc(-c2ccccc2-c2nn[nH]n2)cc1 [TN513:LS, Tamibarotene:L-malic acid:losartan]
U-2 OS; [3]
  pIC50: 4.19
U-2 OS; read-out: IC50 Test (II) Avg
  pIC50: 4.16
U-2 OS; read-out: IC50 Test(I) Avg
  pIC50: 4.22
PC-3; [3]
  pIC50: 3.48
PC-3; read-out: IC50 Test (II) Avg
  pIC50: 3.47
PC-3; read-out: IC50 Test(I) Avg
  pIC50: 3.49
SK-Mel-5; [3]
  pIC50: 3.94
SK-Mel-5; read-out: IC50 Test (II) Avg
  pIC50: 3.88
SK-Mel-5; read-out: IC50 Test(I) Avg
  pIC50: 4.00
A549; [3]
  pIC50: 3.96
A549; read-out: IC50 Test (II) Avg
  pIC50: 3.90
A549; read-out: IC50 Test(I) Avg
  pIC50: 4.03
PANC-1; [3]
  pIC50: 3.90
PANC-1; read-out: IC50 Test (II) Avg
  pIC50: 3.83
PANC-1; read-out: IC50 Test(I) Avg
  pIC50: 3.98
SK-ES-1; [3]
  pIC50: 3.97
SK-ES-1; read-out: IC50 Test (II) Avg
  pIC50: 3.91
SK-ES-1; read-out: IC50 Test(I) Avg
  pIC50: 4.05

## CC1(C)CCC(C)(C)c2cc(NC(=O)c3ccc(C(=O)O)cc3)ccc21.CCCc1nc2c(C)cc(-c3nc4ccccc4n3C)cc2n1Cc1ccc(-c2ccccc2C(=O)O)cc1.O=C(O)C[C@H](O)C(=O)O [TN513:TS, Tamibarotene:L-malic acid:telmisartan]
Lung cancer cells; FIG. 10
  preventing sphere aggregation (sphere formation efficacy): superior efficacy preventing sphere aggregation
Lung cancer cells; FIG. 11
  total surface area of the cancer cell spheres: dramatically reducing the total surface area
U-2 OS; [3]
  pIC50: 4.89
U-2 OS; read-out: IC50 Test (II) Avg
  pIC50: 4.84
U-2 OS; read-out: IC50 Test(I) Avg
  pIC50: 4.95
PC-3; [3]
  pIC50: 4.15
PC-3; read-out: IC50 Test (II) Avg
  pIC50: 4.15
PC-3; read-out: IC50 Test(I) Avg
  pIC50: 4.14
SK-Mel-5; [3]
  pIC50: 4.68
SK-Mel-5; read-out: IC50 Test (II) Avg
  pIC50: 4.58
SK-Mel-5; read-out: IC50 Test(I) Avg
  pIC50: 4.81
A549; [3]
  pIC50: 4.80
A549; read-out: IC50 Test (II) Avg
  pIC50: 4.70
A549; read-out: IC50 Test(I) Avg
  pIC50: 4.92
PANC-1; [3]
  pIC50: 4.49
PANC-1; read-out: IC50 Test (II) Avg
  pIC50: 4.40
PANC-1; read-out: IC50 Test(I) Avg
  pIC50: 4.61
SK-ES-1; [3]
  pIC50: 4.75
SK-ES-1; read-out: IC50 Test (II) Avg
  pIC50: 4.74
SK-ES-1; read-out: IC50 Test(I) Avg
  pIC50: 4.76
[2]
  stability on accelerated conditions (PXRD): no change in PXRD data
